Measured values reported in US10576062B2, “Carbamoyloxymethyl triazole cyclohexyl acids as LPA antagonists” (Bristol-Myers Squibb Company, priority 2016, dated 2020).
pIC50: −log10 of the molar value.

The compounds below were run against T1, human LPA1 (Homo sapiens, UniProt Q92633) (assay: LPA1 functional antagonist assay (LPA-induced calcium flux)). Details: CHO cells overexpressing human LPA1; inhibition of calcium flux induced by 10 nM LPA; read-out: hLPA1 IC50.
T1 construct: expressed in transfected cells; host or cells: Chinese hamster ovary (CHO) cells
T1 sequence (Q92633 whole entry): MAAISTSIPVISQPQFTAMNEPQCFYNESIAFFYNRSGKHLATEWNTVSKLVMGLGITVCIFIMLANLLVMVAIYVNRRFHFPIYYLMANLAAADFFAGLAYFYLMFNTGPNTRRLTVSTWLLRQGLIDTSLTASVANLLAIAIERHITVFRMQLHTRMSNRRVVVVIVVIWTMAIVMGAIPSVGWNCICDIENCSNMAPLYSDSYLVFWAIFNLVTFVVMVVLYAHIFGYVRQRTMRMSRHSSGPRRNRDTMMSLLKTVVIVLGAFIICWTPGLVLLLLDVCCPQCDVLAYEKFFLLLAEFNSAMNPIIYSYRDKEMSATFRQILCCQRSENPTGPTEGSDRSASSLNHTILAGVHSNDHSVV
Type: cell-based
Experimental: The effectiveness of compounds of the present invention as LPA1 inhibitors can be determined in an LPA1 functional antagonist assay as follows: Chinese hamster ovary cells overexpressing human LPA1 were plated overnight (15,000 cells/well) in poly-D-lysine coated 384-well microplates (Greiner bio-one, Cat #781946) in DMEM/F12 medium (Gibco, Cat #11039). Following overnight culture, cells were loaded with calcium indicator dye (AAT Bioquest Inc, Cat #34601) for 30 minutes at 37° C. The cells were then equilibrated to room temperature for 30 minutes before the assay. Test compounds solubilized in DMSO were transferred to 384 well non-binding surface plates (Corning, Cat #3575) using the Labcyte Echo acoustic dispense and diluted with assay buffer [1×HBSS with calcium/magnesium (Gibco Cat #14025-092), 20 mM HEPES (Gibco Cat #15630-080) and 0.1% fatty acid free BSA (Sigma Cat #A9205)] to a final concentration of 0.5% DMSO. Diluted compounds were added to the cells by FDSS6000 (Hamamatsu) at final concentrations ranging from 0.08 nM to 5 μM. and were then incubated for 20 min at room temperature at which time LPA (Avanti Polar Lipids Cat #857130C) was added at final concentrations of 10 nM to stimulate the cells. […] IC50 values were determined by fitting data to a 4-parameter logistic equation (GraphPad Prism, San Diego Calif.).

| pIC50 | Structure (SMILES) |
| --- | --- |
| 7.72 | CN(Cc1ccccc1)C(=O)OCc1c(-c2ccc(O[C@H]3CCC[C@H](C(=O)O)C3)c(C(F)F)n2)nnn1C [Example 282, (1S,3S)-3-((6-(5-(((benzyl(methyl)carbamoyl)oxy)methyl)-1-methyl-1H-1,2,3-triazol-4-yl)-2-(difluoromethyl)pyridin-3-yl)oxy)cyclohexane-1-carboxylic acid] |
| 6.91 | Cc1nc(-c2nnn(C)c2CCCOC(=O)N(C)Cc2ccccc2)ccc1O[C@H]1CCC[C@H](C(=O)O)C1 [Example 249, (1S,3S)-3-((6-(5-(3-((Benzyl(methyl)carbamoyl)oxy)propyl)-1-methyl-1H-1,2,3-triazol-4-yl)-2-methylpyridin-3-yl)oxy)cyclohexane-1-carboxylic Acid] |
| 6.68 | Cc1nc(-c2nnn(C)c2CCOC(=O)N2CCCC2)ccc1O[C@H]1CCC[C@H](C(=O)O)C1 [Example 246, (2S,3S)-3-((2-Methyl-6-(1-methyl-5-(2-((pyrrolidine-1-carbonyl)oxy)-ethyl)-1H-1,2,3-triazol-4-yl)pyridin-3-yl)oxy)cyclohexane-1-carboxylic acid] |
| 6.87 | Cc1nc(-c2nnn(C)c2COC(=O)N(C)CC(C)(C)F)ccc1O[C@H]1CCC[C@H](C(=O)O)C1 [Example 253, (1S,3S)-3-((6-(5-((((2-fluoro-2-methylpropyl)(methyl)carbamoyl)oxy)methyl)-1-methyl-1H-1,2,3-triazol-4-yl)-2-methylpyridin-3-yl)oxy)cyclohexane-1-carboxylic acid] |
| 7.40 | CN(CC1CC1)C(=O)OCc1c(-c2ccc(O[C@H]3CCC[C@H](C(=O)O)C3)c(C#N)n2)nnn1C [Example 289, (1S,3S)-3-((2-cyano-6-(5-((((cyclopropylmethyl)(methyl)carbamoyl)oxy)methyl)-1-methyl-1H-1,2,3-triazol-4-yl)pyridin-3-yl)oxy)cyclohexane-1-carboxylic acid] |
| 5.43 | Cc1nc(-c2nnn(C)c2COC(=O)N(C)CC2CCC2)ccc1O[C@H]1CCC[C@H](C#N)C1 [Example 15, (4-(5-(((1S,3S)-3-cyanocyclohexyl)oxy)-6-methylpyridin-2-yl)-1-methyl-1H-1,2,3-triazol-5-yl)methyl (cyclobutylmethyl)(methyl)carbamate] |
| 6.50 | CCCN(C)C(=O)OCCc1c(-c2ccc(O[C@H]3CCC[C@H](C(=O)O)C3)c(C)n2)nnn1C [Example 242, (1S,3S)-3-((2-Methyl-6-(1-methyl-5-(2-((methyl(propyl)carbamoyl)oxy)-ethyl)-1H-1,2,3-triazol-4-yl)pyridin-3-yl)oxy)cyclohexane-1-carboxylic acid] |

Same assay, conditions: human LPA1; read-out: hLPA1 IC50

| pIC50 | Structure (SMILES) |
| --- | --- |
| 6.47 | Cc1nc(-c2nnn(C)c2COC(=O)N2CCC(c3ccccc3)C2)ccc1O[C@H]1CCC[C@H](C(=O)O)C1 (mixture of isomers) [Example 169, (1S,3S)-3-((2-methyl-6-(1-methyl-5-(((3-phenylpyrrolidine-1-carbonyl)oxy)methyl)-1H-1,2,3-triazol-4-yl)pyridin-3-yl)oxy)cyclohexane-1-carboxylic acid] |
| 7.44 | Cc1nc(-c2nnn(C)c2COC(=O)N(C)CCCCF)ccc1O[C@H]1CCC[C@H](C(=O)O)C1 [Example 192, (1S,3S)-3-((6-(5-((((4-fluorobutyl)(methyl)carbamoyl)oxy)methyl)-1-methyl-1H-1,2,3-triazol-4-yl)-2-methylpyridin-3-yl)oxy)cyclohexane-1-carboxylic acid] |
| 6.26 | Cc1nc(-c2nnn(C)c2COC(=O)NCCCCF)ccc1O[C@H]1CCC[C@H](C(=O)O)C1 [Example 191, (1S,3S)-3-((6-(5-((((4-fluorobutyl)carbamoyl)oxy)methyl)-1-methyl-1H-1,2,3-triazol-4-yl)-2-methylpyridin-3-yl)oxy)cyclohexane-1-carboxylic acid] |
| 6.99 | CCC1CCN(C(=O)OCc2c(-c3ccc(O[C@H]4CCC[C@H](C(=O)O)C4)c(C)n3)nnn2C)C1 (mixture of isomers) [Example 165, (1S,3S)-3-((6-(5-(((3-ethylpyrrolidine-1-carbonyl)oxy)methyl)-1-methyl-1H-1,2,3-triazol-4-yl)-2-methylpyridin-3-yl)oxy)cyclohexane-1-carboxylic acid] |
| 7.68 | CC(C)=CCN(C)C(=O)OCc1c(-c2ccc(O[C@H]3CCC[C@H](C(=O)O)C3)c(C)n2)nnn1C [Example 177, (1S,3S)-3-((2-methyl-6-(1-methyl-5-(((methyl(3-methylbut-2-en-1-yl)carbamoyl)oxy)methyl)-1H-1,2,3-triazol-4-yl)pyridin-3-yl)oxy)cyclohexane-1-carboxylic acid] |

Same assay, conditions: read-out: hLPA1 IC50

| pIC50 | Structure (SMILES) |
| --- | --- |
| 7.10 | CC(C1CC1)N(C)C(=O)OCc1c(-c2ccc(O[C@H]3CCC[C@H](C(=O)O)C3)cc2)nnn1C (mixture of isomers) [Example 65, trans-3-(4-(5-((((1-cyclopropylethyl)(methyl)carbamoyl)oxy)methyl)-1-methyl-1H-1,2,3-triazol-4-yl)phenoxy)cyclohexane-1-carboxylic acid] |
| 7.64 | CCCC(C)N(C)C(=O)OCc1c(-c2ccc(O[C@H]3CCC[C@H](C(=O)O)C3)c(C)c2)nnn1C (mixture of isomers) [Example 39, (1S,3S)-3-(2-methyl-4-(1-methyl-5-(((methyl(pentan-2-yl)carbamoyl)oxy)methyl)-1H-1,2,3-triazol-4-yl)phenoxy)cyclohexane-1-carboxylic acid] |
| 6.36 | CC(C)CN(C)C(=O)OCc1c(-c2ccc(O[C@H]3CCC[C@H](C(=O)O)C3)cc2)nnn1C [Example 53, (1S,3S)-3-(4-(5-(((isobutyl(methyl)carbamoyl)oxy)methyl)-1-methyl-1H-1,2,3-triazol-4-yl)phenoxy)cyclohexane-1-carboxylic acid] |
| 8.15 | CCCCN(C)C(=O)OCc1c(-c2ccc(O[C@H]3CCC[C@H](C(=O)O)C3)cn2)nnn1C [Example 43, (1S,3S)-3-((6-(5-(((butyl(methyl)carbamoyl)oxy)methyl)-1-methyl-1H-1,2,3-triazol-4-yl)pyridin-3-yl)oxy)cyclohexane-1-carboxylic acid] |
| 6.80 | CCCN(CC)C(=O)OCc1c(-c2ccc(O[C@H]3CCC[C@H](C(=O)O)C3)c(C)n2)nnn1C [Example 128, (1S,3S)-3-((6-(5-(((ethyl(propyl)carbamoyl)oxy)methyl)-1-methyl-1H-1,2,3-triazol-4-yl)-2-methylpyridin-3-yl)oxy)cyclohexane-1-carboxylic acid] |
| 7.27 | Cc1nc(-c2nnn(C)c2COC(=O)N(C)C(C2CC2)C2CC2)ccc1O[C@H]1CCC[C@H](C(=O)O)C1 [Example 86, (1S,3S)-3-((6-(5-((((Dicyclopropylmethyl)(methyl)carbamoyl)oxy)methyl)-1-methyl-1H-1,2,3-triazol-4-yl)-2-methylpyridin-3-yl)oxy)cyclohexanecarboxylic acid] |
| 7.72 | CC(C1CCC1)N(C)C(=O)OCc1c(-c2ccc(O[C@H]3CCC[C@H](C(=O)O)C3)cc2)nnn1C (mixture of isomers) [Example 54, (1S,3S)-3-(4-(5-((((1-cyclobutylethyl)(methyl)carbamoyl)oxy)methyl)-1-methyl-1H-1,2,3-triazol-4-yl)phenoxy)cyclohexane-1-carboxylic acid] |
